In patent EP0497609B1, “Pyrimido-benzothiazine derivatives for the treatment of inflammation, allergy and cardiovascular disease” (PFIZER INC., priority 1991, dated 1992):

Experiments:
Type in all cases: in vivo
[1] = tested on: mouse; experiment: PAF (Platelet Activating Factor) lethality assay; settings: for PAF lethality survival (%): Dose 50 mg/kg
Description: (§1) The compounds of formulae (I) and (II) of this invention can be shown to inhibit lipoxygenase according to various testing methods. Such methods include the following: RPC (Rat Peritoneal Cavity resident cells) assay according to methods described in Jap. J. Inflammation 7:145-150 (1987), "Synthesis of leukotrienes by peritoneal macrophages"; PAF (Platelet Activating Factor) lethality assay according to methods described in Prostaglandisis 30(4):545-551 (1985); and y-RFE (yeast induced Rat Foot Edema) assay according to methods described in Biochem. Pharmacol. 36:547 (1987).
In the PAF lethality assay, the compound of Example 5, as shown in the Table above, gave a high (69%) survival percentage. The term "survival percentage" herein means the inhibitory efficacy to shock death of the mouse through lipoxygenase metabolites activated by dosing with PAF.

[2] = tested on: rat foot; experiment: y-RFE (yeast induced Rat Foot Edema) assay; settings: Dose 60 mg/kg; rat foot edema induced by yeast suspension
Description: as §1
Furthermore, in the y-RFE assay, the compound of Example 5, as shown in the Table above, gave a high (69%) edema inhibitory percentage. The term "edema inhibitory percentage" herein means the inhibitory efficacy to the swelling of inflammatory edema of the rat foot induced by the injection of yeast suspension.

[3] = tested on: male ICR mice; experiment: Acute toxicity after oral administration; settings: 7 hours after oral administration at 600 mg/kg to male ICR mice
Experimental: Acute toxicity of the compound of Example 5 was investigated 7 hours after oral administration at 600 mg/kg to male ICR mice (Charles River Japan Inc., 5 weeks old, avg. body weight of 28 g).

SMILES	PAF lethality survival (%) [1] [%]	y-RFE edema inhibitory (%) [2] [%]	ED50 ([1]; Platelet, read-out: ED₅₀ value in the PAF lethality assay) [mg/kg]	Acute toxicity [3]
O=c1[nH]c2c(c(=O)[nH]1)Nc1ccccc1S2 [Example 1, 1,5-Dihydro-2H-pyrimido[4,5-b][1,4]benzothiazine-2,4(3H)-dione]	56	–	–	–
Cn1c(=O)[nH]c2c(c1=O)Nc1ccccc1S2 [Example 2, 1,5-Dihydro-3-methyl-2H-pyrimido[4,5-b][1,4]benzothiazine-2,4(3H)-dione]	30	–	–	–
Cn1c(=O)nc2sc3ccccc3nc-2c1=O [Example 5, 3-Methyl-2H-pyrimido[4,5-b][1,4]benzothiazine-2,4(3H)-dione]	69	69	51	did not show any acute toxic symptoms
